Assay results: patent US12194105B2, “Composition and method for new antimicrobial agents with secondary mode of action provided by conjugation of an antimicrobial to a guanidinium-rich molecular transporter” (The Board of Trustees of the Leland Stanford Junior …, priority 2018, dated 2025)
Values after ≈ are worked out from the molar mass of the structure shown. “Also recorded” adds a separate entry of the source. Read-outs that look alike come from different tables or passages of the source.

Experiments:
E. coli UTI89 [1] = system: E. coli UTI89
Method: (§1) MICS were determined using broth microdilution in accordance with CLSI methods.^6 One day prior to each MIC experiment, bacterial strains were streaked for single colonies from frozen glycerol stocks stored at −80° C. on Tryptic soy agar. 3-5 colonies from each plate were harvested with a disposable inoculating loop and resuspended in 500 μL PBS. This suspension was diluted in sterile-filtered PBS to an OD of 0.1(˜1×10^8 CFU/ml), and the OD 0.1 suspension was diluted 1:100 in Mueller-Hinton Broth (MHB, Difco 257530) just prior to inoculating the 96-well polypropylene treatment plate. The treatment plate was prepared as follows: 20-fold stocks of the highest concentration of compound tested were prepared in sterile-filtered PBS and were subsequently diluted in MHB to prepare working stocks at 2-times the final concentration. 100 μL of each working stock was placed in the highest concentration treatment well, and the working stocks were 2-fold serially diluted in MHB to lend final treatment volumes of 50 μL/well. 50 μL of adjusted inoculum was added to each well to lend a total volume of 100 μL/well and a final inoculum density of ˜5×10^5 colony forming units (CFU/ml). 10 μL of inoculum in growth control wells was serially diluted in PBS and plated on Tryptic soy agar to verify accurate starting density of cells. Growth controls were included in each plate, where no treatment was applied, along with media only controls. Edge wells were filled with PBS. The completed assay plate was sealed with parafilm, placed in a lidded plastic tray lined with moistened paper towels, and incubated at 37° C. for 18-20 h.

[2] = 0.05% V-r8, absence of bacteria
Method: To examine in vivo cytotoxicity, sterile wounds were generated and inoculated only with water (FIG. 8A) or 0.05% V-r8 (FIG. 8B) in the absence of bacteria. Wound tissue was harvested after 3 days and examined by Hematoxylin & Eosin staining. […] Epi: skin epidermis; Der: skin dermis. Scale bar represents 100 μm. Images are representative of 3 independent samples.
In vivo histological cytotoxicity assessment. […] Samples were fixed in 4% paraformaldehyde in PBS and incubated in 20% sucrose for 24 hours. Tissues were then embedded into Optical Cutting Temperature (OCT) compound (Sakura, California) and snap frozen in liquid nitrogen. 12 μm sections were obtained on a Leica CM1860 UV cryotome (Leica Biosystems, Ernst-Leitz Strasse, Germany), stained with hemotoxylin and eosin (H&E), and visualized using an Axio Scan.Z1 slide scanner (Carl Zeiss, Göttingen, Germany) under 20×/0.8 Apochrome objective as previously described.

[3] = system: MW2 stationary-phase cells; assay: Bacterial membrane integrity with SYTOX Green; details: V, V-r8 20 μM; lysostaphin 10×MIC
Source text: V-r8 mode-of-action analysis using stationary-phase MW2. All data points represent the median of biological duplicates from a representative experiment; all experiments were repeated on a different day to ensure reproducibility. V-r8 was the TFA salt, and PBS was used for the cell only control. […] Assay detection limit=2.3. […] Compound data was normalized to cell-only control data.
Evaluation of Bacterial Membrane Integrity with SYTOX Green. The SYTOX Green assay was adapted from the literature. Briefly, to a black wall clear-bottom 96-well plate (Costar 3603) was added 50 μL of PBS per well containing antibiotics at 2-times the indicated concentration. 1 mL of a stationary phase MW2 culture was pelleted at 10,000 g for 1 min and washed 3 times with the same volume of sterile-filtered PBS. The washed cells were diluted to OD600=0.1 (˜4×10^7 CFU/mL) with PBS. SYTOX Green (Molecular Probes) was added to the diluted stationary phase suspension for a final concentration of 5 μM and incubated for 0.5 h at room temperature in the dark. 50 μL of the bacteria/SYTOX Green mixture was added to each well of 96-well plates containing antibiotics and fluorescence was measured at 37° C. with shaking for up to 4 h using a spectrophotometer (SpectraMax M3, Molecular Devices) with excitation and emission wavelengths of 485 and 525 nm, respectively. Lysostaphin (1.25 μg/mL) was used as a positive control. The experiment was performed twice on separate days.

[4] = system: MRSA USA300 LAC persister cells; assay: Time-kill of persister cells generated with ciprofloxacin; format: cell-based, Staphylococcus aureus; details: for killing of persister cells: in words
Method: FIG. 1. Time-kill study of MRSA USA300 LAC persister cells treated with vancomycin and V-r8. MRSA persister cells were generated by treatment with ciprofloxacin at 40 μM for 6 h. Vancomycin or V-r8 (TFA salt) was then introduced at a concentration of 10 μM. Data points are median Log(CFU/ml) values from 2 independent experiments (N=2) where treatments were performed in singlicate. Error bars represent IQR. Detection limit: 1 Log(CFU/ml).
Evaluation of antibacterial activity against persister cells. USA300 persister cells were generated by diluting an overnight culture of USA300 bacteria 1:1000 in 4 mL MHB and growing to OD 0.5 at 37° C. with 200 rpm shaking. […] Upon 6 h treatment with ciprofloxacin, 500 μL culture aliquots were added to Eppendorf tubes and compounds were added from concentrated stocks (mM range) to yield desired final concentrations (10-20 μM). […] CFU/ml were plated at indicated time points to monitor treatment efficacy. The experiment was performed at least twice on separate days.

MRSA USA400 MW2 = assay: Time-kill in MHB; format: cell-based, Staphylococcus aureus; details: 20 μM; detection limit 2.3 Log(CFU/ml)
Method: FIG. 9. Influence of V and V-r8 (both at 20 μM) on cell viability for MRSA USA400 MW2 in MHB.

MRSA (USA300LAC) [5] = system: MRSA (USA300LAC)
Method: (§2) Determination of MICs. MICS were determined using broth microdilution in accordance with CLSI methods.^6 One day prior to each MIC experiment, bacterial strains were streaked for single colonies from frozen glycerol stocks stored at −80° C. on Tryptic soy agar. 3-5 colonies from each plate were harvested with a disposable inoculating loop and resuspended in 500 μL PBS. This suspension was diluted in sterile-filtered PBS to an OD of 0.1(˜1×10^8 CFU/ml), and the OD 0.1 suspension was diluted 1:100 in Mueller-Hinton Broth (MHB, Difco 257530) just prior to inoculating the 96-well polypropylene treatment plate. The treatment plate was prepared as follows: 20-fold stocks of the highest concentration of compound tested were prepared in sterile-filtered PBS and were subsequently diluted in MHB to prepare working stocks at 2-times the final concentration. 100 μL of each working stock was placed in the highest concentration treatment well, and the working stocks were 2-fold serially diluted in MHB to lend final treatment volumes of 50 μL/well. 50 μL of adjusted inoculum was added to each well to lend a total volume of 100 μL/well and a final inoculum density of ˜5×10^5 colony forming units (CFU/ml). 10 μL of inoculum in growth control wells was serially diluted in PBS and plated on Tryptic soy agar to verify accurate starting density of cells. Growth controls were included in each plate, where no treatment was applied, along with media only controls. Edge wells were filled with PBS. The completed assay plate was sealed with parafilm, placed in a lidded plastic tray lined with moistened paper towels, and incubated at 37° C. for 18-20 h.

USA300 LAC biofilm wound = assay: Murine skin wound excisional biofilm model; details: 0.05% solution topical, 5 h treatment, 24 h post infection, compared to untreated mice
MRSA (USA400MW2) [6] = system: MRSA (USA400MW2)
Method: as §1

planktonic S. aureus = assay: Antibacterial activity against planktonic bacteria (summary over strains); details: in words
Method: (§3) Determination of MICs. MICS were determined using broth microdilution in accordance with CLSI methods.^6 One day prior to each MIC experiment, bacterial strains were streaked for single colonies from frozen glycerol stocks stored at −80° C. on Tryptic soy agar. 3-5 colonies from each plate were harvested with a disposable inoculating loop and resuspended in 500 μL PBS. This suspension was diluted in sterile-filtered PBS to an OD of 0.1(˜1×10^8 CFU/ml), and the OD 0.1 suspension was diluted 1:100 in Mueller-Hinton Broth (MHB, Difco 257530) just prior to inoculating the 96-well polypropylene treatment plate. The treatment plate was prepared as follows: 20-fold stocks of the highest concentration of compound tested were prepared in sterile-filtered PBS and were subsequently diluted in MHB to prepare working stocks at 2-times the final concentration. 100 μL of each working stock was placed in the highest concentration treatment well, and the working stocks were 2-fold serially diluted in MHB to lend final treatment volumes of 50 μL/well. 50 μL of adjusted inoculum was added to each well to lend a total volume of 100 μL/well and a final inoculum density of ˜5×10^5 colony forming units (CFU/ml). 10 μL of inoculum in growth control wells was serially diluted in PBS and plated on Tryptic soy agar to verify accurate starting density of cells. […]

[7] = system: V. cholerae El Tor A1552R
MRSA USA300 biofilms = assay: Biofilm reduction in vitro after 5 h treatment, Calgary Biofilms Device; format: cell-based, Staphylococcus aureus; details: for Log CFU/ml counts: 5 h treatment, median (IQR), untreated 4.5, detection limit 2 Log
P. aeruginosa PA14 [8] = details: P. aeruginosa PA14, one trial only
Method: as §3

MSSA (29213) [9] = system: MSSA (29213)
Method: as §1

E. faecium Van-Resistant [10] = system: E. faecium Van-Resistant
Method: as §1

V. cholerae = assay: Time-kill study of V. cholerae; format: cell-based; details: equivalent concentrations
Method: FIG. 11A-11B. Time-kill study of V. cholerae treated with compounds. (FIG. 11A) Treatments were performed at 20 μM in media. (FIG. 11B) Treatments were performed at 2×MIC in PBS. Kan refers to kanamycin, a FDA-approved aminoglycoside. Data points are from a representative experiment. Detection limit=2.3 Log (CFU/ml).

P. aeruginosa PA14 [11] = assay: microbe, parasite or virus in culture; details: Pseudomonas aeruginosa, PA14, read-out: Median MIC
Method: as §3

MSSA (29213) [12] = assay: microbe, parasite or virus in culture; details: Staphylococcus aureus, read-out: Minimum Inhibitory Concentration (MIC)
Method: as §1

A. baumannii = assay: MIC, Gram-negative planktonic strains; details: Acinetobacter baumannii
Method: as §3

E. coli UTI89 [13] = assay: microbe, parasite or virus in culture; details: Escherichia coli, UTI89, read-out: Median MIC
Method: as §1

[14] = system: V. cholerae El Tor A1552R; assay: microbe, parasite or virus in culture; details: Vibrio cholerae, ELTORA1552R, read-out: Median MIC
[15] = system: E. faecium Van-Susceptible; assay: microbe, parasite or virus in culture; details: Enterococcus faecium, read-out: E. faecium MICs Van-Susceptible
Method: as §3

E. faecium Van-Resistant [16] = assay: microbe, parasite or virus in culture; details: Enterococcus faecium, read-out: E. faecium MICs Van-Resistant
Method: as §1

MRSA (USA300LAC) [17] = assay: microbe, parasite or virus in culture; details: Staphylococcus aureus, read-out: Minimum Inhibitory Concentration (MIC)
Method: as §2

MRSA (USA400MW2) [18] = assay: microbe, parasite or virus in culture; details: Staphylococcus aureus, read-out: Minimum Inhibitory Concentration (MIC)
Method: as §1

[19] = system: E. faecalis Van-Resistant
Method: as §1

[20] = system: E. faecalis Van-Resistant; assay: microbe, parasite or virus in culture; details: Enterococcus faecalis, read-out: E. faecalis MICs Van-Resistant
Method: as §1

[21] = system: E. faecalis Van-Susceptible; assay: microbe, parasite or virus in culture; details: Enterococcus faecalis, read-out: E. faecalis MICs Van-Susceptible
Method: as §3

H. pylori = assay: MIC, Gram-negative planktonic strains; details: Helicobacter pylori
Method: as §3

[22] = system: E. faecalis Van-Susceptible
Method: as §3

[23] = system: E. faecium Van-Susceptible
Method: as §3

[24] = median (IQR), MSSA (29213), 24 h treatment in media
[25] = median (IQR), MRSA (USA300LAC), 24 h treatment in media

Method for MRSA (USA300LAC) biofilm: (§4) Determination of MBECs. Minimum Biofilm Eradication Concentrations (MBECs) were determined in accordance with literature methods. Prior to each assay, 4 mL Tryptic Soy broth (TSB) was inoculated with one colony of S. aureus 29213, MW2 or USA300 and incubated at 37° C., 200 rpm shaking until stationary phase was reached (OD>2). The cultures were adjusted to in TSB to achieve a final inoculum density of 1×10^7 CFU/ml, and 150 μL of inoculum was added to each well of a 96-well base plate (Nunc™ 269787), and a plate lid containing 96 pegs (Nunc™ 445497) was added to the base. The entire apparatus was sealed with parafilm and placed in a sealed plastic bag lined with moistened paper towels for 48 h growth with shaking (150 rpm) at 35° C.
(§5) To prepare biofilm treatment plates, 20-fold stocks of the highest concentration tested were made in sterile-filtered PBS. The 20-fold stocks were diluted in TSB to yield 2-fold working stocks; 200 μL of working stock was added to the highest concentration treatment well and 2-fold serially diluted across the plate to lend final treatment volumes of 100 μL/well. TSB was added to treatment wells to yield final volume of 200 μL/well. PBS was added to the edge wells of the 96-well plate.
(§6) Prior to treatment, 48 h biofilms were rinsed in a 96-well plate containing 200 μL PBS/well for one minute and then the peg lid was transferred to the treatment plate. The plate was parafilmed and incubated at 35° C. for 24 h with 150 rpm shaking. Upon 24 h treatment, the peg lid was removed, rinsed in 200 μL PBS buffer twice for 1 min each, then transferred to a recovery plate containing 200 μL TSB+1% Tween-20 per well. The apparatus was placed in a steel tray and sonicated in a water bath sonicator (Branson 1510) for 10 min to dislodge biofilms. The peg lid was subsequently removed and the media-containing plate was incubated for 20 h at 35° C. with 150 rpm shaking to recover biofilms. The MBEC was read as the lowest treatment concentration where no growth occurred, as determined by measuring by OD600 on a plate reader. […]
Method for MRSA (USA400MW2) biofilm: as §4
To prepare biofilm treatment plates, 20-fold stocks of the highest concentration tested were made in sterile-filtered PBS. […]
Prior to treatment, 48 h biofilms were rinsed in a 96-well plate containing 200 μL PBS/well for one minute and then the peg lid was transferred to the treatment plate. […] The MBEC was read as the lowest treatment concentration where no growth occurred, as determined by measuring by OD600 on a plate reader. […]
Method for MSSA (29213) biofilm: as §4, §5, §6
Method for S. aureus biofilms: as §4, §5
Prior to treatment, 48 h biofilms were rinsed in a 96-well plate containing 200 μL PBS/well for one minute and then the peg lid was transferred to the treatment plate. The plate was parafilmed and incubated at 35° C. for 24 h with 150 rpm shaking. Upon 24 h treatment, the peg lid was removed, rinsed in 200 μL PBS buffer twice for 1 min each, then transferred to a recovery plate containing 200 μL TSB+1% Tween-20 per well. The apparatus was placed in a steel tray and sonicated in a water bath sonicator (Branson 1510) for 10 min to dislodge biofilms. The peg lid was subsequently removed and the media-containing plate was incubated for 20 h at 35° C. with 150 rpm shaking to recover biofilms. The MBEC was read as the lowest treatment concentration where no growth occurred, as determined by measuring by OD600 on a plate reader. The values reported are median values from a minimum of two experiments performed on different days.

CN[C@H](CC(C)C)C(=O)N[C@H]1C(=O)N[C@@H](CC(N)=O)C(=O)N[C@H]2C(=O)N[C@H]3C(=O)N[C@H](C(=O)N[C@H](C(=O)NCCCCCC(=O)N[C@H](CCCNC(=N)N)C(=O)N[C@H](CCCNC(=N)N)C(=O)N[C@H](CCCNC(=N)N)C(=O)N[C@H](CCCNC(=N)N)C(=O)N[C@H](CCCNC(=N)N)C(=O)N[C@H](CCCNC(=N)N)C(=O)N[C@H](CCCNC(=N)N)C(=O)N[C@H](CCCNC(=N)N)C(N)=O)c4cc(O)cc(O)c4-c4cc3ccc4O)[C@H](O)c3ccc(c(Cl)c3)Oc3cc2cc(c3O[C@@H]2O[C@H](CO)[C@@H](O)[C@H](O)[C@H]2O[C@H]2C[C@](C)(N)[C@H](O)[C@H](C)O2)Oc2ccc(cc2Cl)[C@H]1O [V-r8, vancomycin-D-octaarginine]
Minimum Biofilm Eradication Concentration (MBEC) (MSSA (29213) biofilm; [24]): 16 µM | Median MIC (E. coli UTI89 [1]; E. coli UTI89): ≥32 µM | acute toxicity, open wound [2]: no acute toxicity | SYTOX Green uptake (membrane damage) [3]: no SYTOX Green uptake | efficacy against persister cells relative to vancomycin ([4]; at 20 μM): > 1500 fold | killing of persister cells [4]: enhanced killing of persister cells | cell killing, time-kill in MHB (MRSA USA400 MW2): rapid killing; also recorded: eradicated MRSA to the CFU/ml detection limit | Minimum Inhibitory Concentration (MIC) (MRSA (USA300LAC) [5]; median (IQR), MRSA (USA300LAC)): 2.0 (0.1) μM | reduction in biofilm bacterial load (CFU/wound) (USA300 LAC biofilm wound): significant reduction; also recorded: as effective as 2% fusidic acid | Minimum Inhibitory Concentration (MIC) (MRSA (USA400MW2) [6]; median (IQR), MRSA (USA400MW2)): 0.94 (0.2) μM | Minimum Biofilm Eradication Concentration (MBEC) (MRSA (USA300LAC) biofilm; [25]): 9.5 µM | antimicrobial activity against planktonic S. aureus (planktonic S. aureus): single digit micromolar | Median MIC [7]: 10 µM | Log CFU/ml counts (MRSA USA300 biofilms; 16 μM in PBS): 2.2 (0.2) Log CFU/ml | Log CFU/ml counts (MRSA USA300 biofilms; 32 μM in PBS): 2.0 (0) Log CFU/ml | biofilm-associated MRSA eradicated (MRSA USA300 biofilms; 5 h treatment at 16 and 32 μM): 98% | Median MIC (P. aeruginosa PA14 [8]): >32 µM | Minimum Inhibitory Concentration (MIC) (MSSA (29213) [9]; median (IQR), MSSA (29213)): 1.6 (0.5) μM | improvement against VRE faecium (over vancomycin) (E. faecium Van-Resistant [10]): 128 fold | killing relative to V, r8 and untreated cells (V. cholerae; after 4 h): ~5 orders of magnitude | higher killing than kanamycin (V. cholerae; over the first 2 h): 2-3 orders of magnitude | better potency over vancomycin in diminishing growth of biofilm-associated bacteria (S. aureus biofilms; in PBS): 160 fold | better potency over vancomycin in diminishing growth of biofilm-associated bacteria (S. aureus biofilms; in media): > 31 fold | minimum biofilm eradication concentrations (MBECs) (S. aureus biofilms; range over S. aureus strains of Table 1): 2.5 to 16 µM

CN[C@H](CC(C)C)C(=O)N[C@H]1C(=O)N[C@@H](CC(N)=O)C(=O)N[C@H]2C(=O)N[C@H]3C(=O)N[C@H](C(=O)N[C@H](C(=O)O)c4cc(O)cc(O)c4-c4cc3ccc4O)[C@H](O)c3ccc(c(Cl)c3)Oc3cc2cc(c3O[C@@H]2O[C@H](CO)[C@@H](O)[C@H](O)[C@H]2O[C@H]2C[C@](C)(N)[C@H](O)[C@H](C)O2)Oc2ccc(cc2Cl)[C@H]1O [Vancomycin]
MIC (P. aeruginosa PA14 [11]): > 256 µM | MIC (MSSA (29213) [12]): 0.5 µM (≈ 0.725 µg/mL) | MIC (A. baumannii): > 32 µM | MIC (E. coli UTI89 [13]): > 128 µM | Minimum Biofilm Eradication Concentration (MBEC) (MSSA (29213) biofilm; [24]): ≥500 µM | MIC [14]: 100 µM (≈ 145 µg/mL) | MIC [15]: 0.375 µM (≈ 0.543 µg/mL) | SYTOX Green uptake (membrane damage) [3]: no SYTOX Green uptake | MIC (E. faecium Van-Resistant [16]): 512 µM (≈ 742 µg/mL) | killing of persister cells [4]: ineffective | MIC (MRSA (USA300LAC) [17]): 0.5 µM (≈ 0.725 µg/mL) | cell killing, time-kill in MHB (MRSA USA400 MW2): required longer treatment time | reduction in biofilm bacterial load (CFU/wound) (USA300 LAC biofilm wound): not statistically significant | MIC (MRSA (USA400MW2) [18]): 0.5 µM (≈ 0.725 µg/mL) | increase of MIC in VRE faecalis ([19]; resistant versus susceptible): > 85 fold | Minimum Biofilm Eradication Concentration (MBEC) (MRSA (USA400MW2) biofilm; median (IQR), MRSA (USA400MW2), 24 h treatment in media): ≥500 µM | MIC [20]: 128 µM (≈ 186 µg/mL) | MIC [21]: 1.5 µM (≈ 2.17 µg/mL) | Minimum Biofilm Eradication Concentration (MBEC) (MRSA (USA300LAC) biofilm; [25]): ≥400 µM | Log CFU/ml counts (MRSA USA300 biofilms; 16 μM in PBS): 4.3 (0.3) Log CFU/ml | Log CFU/ml counts (MRSA USA300 biofilms; 32 μM in PBS): 5.1 (1.0) Log CFU/ml | killing of biofilms after 5 h treatment (MRSA USA300 biofilms; 16 and 32 μM, in words): ineffective | increase of MIC in VRE faecium (E. faecium Van-Resistant [10]; resistant versus susceptible): > 1350 fold | MIC (H. pylori): > 32 µM

N=C(N)NCCC[C@@H](N)C(=O)N[C@H](CCCNC(=N)N)C(=O)N[C@H](CCCNC(=N)N)C(=O)N[C@H](CCCNC(=N)N)C(=O)N[C@H](CCCNC(=N)N)C(=O)N[C@H](CCCNC(=N)N)C(=O)N[C@H](CCCNC(=N)N)C(=O)N[C@H](CCCNC(=N)N)C(N)=O [r8, octa-D-arginine]
E. faecalis MICs Van-Susceptible [22]: >64 µM | Minimum Biofilm Eradication Concentration (MBEC) (MSSA (29213) biofilm; 29213) biofilm, 24 h): >80 µM | Median MIC (E. coli UTI89 [1]; UTI89): 36 µM | killing of persister cells [4]: no activity | Minimum Inhibitory Concentration (MIC) (MRSA (USA300LAC) [5]; USA300): 40 (0) μM | Minimum Inhibitory Concentration (MIC) (MRSA (USA400MW2) [6]; USA400): 20 (0) μM | E. faecalis MICs Van-Resistant ([19]; Van-Resistant): >64 µM | Minimum Biofilm Eradication Concentration (MBEC) (MRSA (USA400MW2) biofilm; USA400, 24 h): >80 µM | Minimum Biofilm Eradication Concentration (MBEC) (MRSA (USA300LAC) biofilm; USA300, 24 h): >80 µM | E. faecium MICs Van-Susceptible [23]: >64 µM | Minimum Inhibitory Concentration (MIC) (MSSA (29213) [9]; 29213): 60 (20) μM | E. faecium MICs Van-Resistant (E. faecium Van-Resistant [10]; Van-Resistant): >128 µM | ability to eradicate biofilms (S. aureus biofilms; in words): unable to eradicate biofilms

Lysostaphin: an antibacterial enzyme that induces membrane permeabilization, positive control
SYTOX Green uptake (membrane damage) [3]: Rapid uptake of SYTOX Green
